In brackets after ≈: the same amount, converted by molar mass.
Legend:
[1] = Human plasma protein binding (equilibrium dialysis); format: in vitro ADME; settings: pH 7.4, 10 µM, 37 °C, read-out: human PPB (plasma protein binding) (converted)
[2] = test system: adult S. mansoni; test: Phenotypic screen of adult S. mansoni worms, severity scores and descriptors; format: cell-based, Schistosoma mansoni; settings: for Severity Scores (10 μM) 1 h / Severity Scores (10 μM) 5 h / Severity Scores (10 μM) 24 h / Severity Scores (10 μM) 48 h / Descriptors (10 µM) 1 h / Descriptors (10 µM) 24 h / Descriptors (10 µM) 5 h / Descriptors (10 µM) 48 h: adult S. mansoni; for Severity Scores (10 μM) 1 h / Severity Scores (10 μM) 5 h / Severity Scores (10 μM) 24 h / Severity Scores (10 μM) 48 h: scale 0 (no activity) to 4 (maximal activity); for bioactivity against adult S. mansoni: adult schistosomes; for Severity Scores (10 μM) 1 h / Severity Scores (10 μM) 5 h / Severity Scores (10 μM) 24 h / Severity Scores (10 μM) 48 h / bioactivity against adult S. mansoni: 10 μM; for Descriptors (10 µM) 1 h / Descriptors (10 µM) 24 h / Descriptors (10 µM) 5 h / Descriptors (10 µM) 48 h: phenotypic descriptors
From the text: Because the schistosome parasite can present multiple and dynamic phenotypic responses to chemical insult,[16] we employ a constrained nomenclature of descriptors to describe the changes in the parasite as a function of time and concentration (e.g., motility, density, and shape; and in the case of the adult parasite, an inability to adhere to the bottom of the assay dish). These descriptors are converted into severity scores on a scale of 0 (green)–4 (severest/red) that allow for partially quantitative comparisons of compound effects.[1]−[19] […] The descriptors themselves and their respective scores are detailed in the Supporting Information, Table S1. Severity score data are presented in the results (with the corresponding descriptors detailed in the Supporting Information, Tables S2–S8), and eight new analogs developed and synthesized in support of this effort are described. Finally, absorption, distribution, metabolism and excretion (ADME) data of all compounds presented in this work are reported in the Supporting Information, Table S15.
Table S1. Descriptors and associated severity scores used for S. mansoni adults.
R (rounded or shape altered 1
On sides (adults unable to 1
Shrunk (adults are shorter 1
surface (tegument) of adults)
dfailed to create analytical method
Maintenance of the Schistosoma mansoni life cycle (NMRI isolate), the preparation of adult worms (≥ 42-
days-old), and their co-incubation with test compounds were as described.7-9 Phenotypic responses were
visually recorded using a constrained nomenclature and converted to severity scores on a scale from zero
(no activity) to 4 (maximal activity).8, 9 Use of hamsters for maintaining the S. mansoni life-cycle was
approved by the Institutional Animal Care and Use Committee of the University of California San Diego.
The human myelomonocytic cell line THP -1 was grown at 37 °C and 5% CO2 in RPMI-1640 supplemented
with 10% iFBS, 2 mM glutamate, 100 U/mL penicillin and […] streptomycin.
Drug toxicity to HepG2 cells .10 HepG2 cells line were obtained from the American Type Culture
Collection and cultured in Minimal Essential Medium (MEM) supplemented with 0.19% sodium
bicarbonate, 10% Fetal Bovine Serum, 2 mM L -glutamine, 0.1 mM MEM non-essential amino, 0.009
mg/mL insulin, 1.76 mg/mL bovine serum albumin. The viability of the cells was measured using the MTT
(thiazolyl blue reduction) method. Briefly, ninety -six-well plates were seeded with 2.5 × 10^4 cells/well in
170 ml of culture medium and incubated overnight in 5% CO 2 at 37 °C. Cells were exposed to different
experimental compounds in DMSO. After 48 hours incubation, the viability of the cells was assessed using
MTT (thiazolyl blue reduction) as a dose response assay (11 two -fold serial dilutions) to obtain a calculated
IC50 determination. 4-Azaindolo[2,1-b]quinazoline-6,12-dione is used as a toxicity positive control and
each assay plate includes the following 3 additional controls: a) background control: no cells and no drug
was added, b) target control: cells added but no drugs, and c) DMSO control: same as the target control
except the culture media contains 0.6% DMSO. Absorbance was determined in all wells using a Perkin
Elmer, Ensight plate reader. The fifty percent inhibitory concentrations (IC50’s) were determined using
GraphPad Prism nonlinear regr ession (sigmoidal dose -response, variable slope) equation .
ADME Experiment Protocols
Aqueous pH 7.4 Solubility. Compounds were dried down from 10 mM DMSO solutions using centrifugal
evaporation technique. Phosphate buffer (0.1 M pH 7.4) was added and StirStix were inserted in the glass
vials, with shaking then performed at a constant temperature of 25 °C for 20 -24 h. This step was followed
by double centrifugation with a tip wash in between, to ensure that no residues of the dried compounds
interfere. The solutions were diluted before analysis and quantification using LC/MS/MS was performed.

[3] = Log D7.4 shake-flask octanol-water; format: physicochemical; settings: pH 7.4
Experimental: Log D7.4. Shake-flask octanol-water distribution coefficient was determined at pH 7.4 (Log D7.4). The aqueous solution used is 10 mM sodium phosphate pH 7.4 buffer. The method has been validated for Log D7.4 ranging from -2 to 5.0.
Human Plasma Protein Binding (PPB). PPB was determined using equilibrium dialysis (RED device) to separate free from bound compound. The amount of compound in plasma (10 µM initial concentration) and in dialysis buffer (pH 7.4 phosphate buffer) was measured by LC-MS/MS after equilibration at 37 °C in a dialysis chamber. The fraction unbound (fu) is reported.
Human Liver Microsomal Clint. In vitro intrinsic clearance was determined from human liver microsomes using a standard approach.11 Following incubation and preparation, the samples were analyzed using […]
Rat Hepatocyte Clint. In vitro intrinsic clearance was determined from rat hepatocytes using a standard approach.11 Following incubation and preparation, the samples were analyzed using LC/MS/MS. Refined […]
Calculated LogP and LogD values. Both LogP and LogD predictions are based on a modified version of the method12 where the predicted partition coefficients are composed of the molecules’ atomic increments.
General Chemistry. All starting materials were commercially obtained and were used without further purification, unless specified. Reaction solvents were purified by passage through alumina columns on a purification system manufactured by Innovative Technology (Newburyport, MA). NMR spectra were obtained on Varian NMR systems, operating at 400 or 500 MHz for 1 H acquisitions. LCMS analysis was performed using a Waters AllianceHT e2795 reverse phase HPLC (Waters SunFire C18 4.6 × 50 mm, 3.5 μm column), with a Waters 2996 photodiode array detector scanning from 210 nm to 600 nm, and Waters Micromass ZQ detector (electrospray ionization). Where required, final compounds were purified by preparative reverse phase HPLC (columns Waters Symmetry RP8 30 × 50 mm, 5 μm column, or OBD RP18 30 × 50 mm, 5 μm), with a single wavelength UV−visible detector and Waters Micromass ZQ (electrospray ionization).

[4] = Rat hepatocyte Clint; format: in vitro ADME; settings: rat hepatocytes, intrinsic clearance; read-out: RH CLint
[5] = Human liver microsomal Clint; format: in vitro ADME; settings: for microsomal CLint: human liver microsomes, intrinsic clearance, read-out: HLM Clint
[6] = Aqueous pH 7.4 solubility; format: physicochemical; settings: for solubility: aqueous buffer, thermodynamic from solid, phosphate buffer pH 7.4, 25 °C, 20-24 h, read-out: aq sol (aqueous solubility)

SMILES	fraction unbound [1]	logD [3]	hepatocyte CLint [4] [µL/min/1e6 cells]	microsomal CLint [5] [µL/min/mg]	solubility [6] [µM]	decrease in aqueous solubility compared with 3 ([6]; relative to 3) [fold]	improved metabolic stability in comparison to 8a ([5]; relative to 8a) [fold]	Severity Scores (10 μM) 1 h [2]	Severity Scores (10 μM) 5 h [2]	Severity Scores (10 μM) 24 h [2]	Severity Scores (10 μM) 48 h [2]	bioactivity against adult S. mansoni [2]	Descriptors (10 µM) 1 h [2]	Descriptors (10 µM) 24 h [2]	Descriptors (10 µM) 5 h [2]	Descriptors (10 µM) 48 h [2]
CCCN1CCCN(c2ncc(-c3cc4nccc(Nc5cnccn5)c4cc3C)cn2)CC1 [8d]	0.12	3.2	35	–	–	–	–	1	1	3	3	bioactivity being detected after 1 h	–	–	–	–
c1cc(-c2ccc3c(c2)ncc2c4ccccc4[nH]c32)cc(N2CCOCC2)c1 [6a]	–	5.1	24	57	0.1 (≈ 0.0379 µg/mL)	–	–	0	1	0	1	minimal bioactivity after 5 h	none	none	–	–
CCN1CCCN(c2ncc(-c3cc4nccc(Nc5cnccn5)c4cc3C)cn2)CC1 [8c]	0.16	2.6	32	–	–	–	–	0	4	4	4	–	none	–	–	–
COc1ccc(Nc2ccnc3cc(-c4cnc(N5CCCN(C)CC5)nc4)ccc23)cc1Cl [5d]	–	2.7	9	120	6 (≈ 2.85 µg/mL)	7	–	1	3	4	4	severe phenotypic responses	–	–	–	–
Cc1cc2c(Nc3cnccn3)ccnc2cc1-c1cnc(N2CCCNCC2)nc1 [8e]	0.3	2.3	< 1	–	–	–	10	0	0	0	0	inactive against schistosomes	none	none	none	none

The next lines start with results.

fraction unbound [1]	logD [3]	hepatocyte CLint [4] [µL/min/1e6 cells]	microsomal CLint [5] [µL/min/mg]	solubility [6] [µM]	decrease in aqueous solubility compared with 3 ([6]; relative to 3) [fold]	improved metabolic stability in comparison to 8a ([5]; relative to 8a) [fold]	SMILES	Severity Scores (10 μM) 1 h [2]	Severity Scores (10 μM) 5 h [2]	Severity Scores (10 μM) 24 h [2]	Severity Scores (10 μM) 48 h [2]	bioactivity against adult S. mansoni [2]	Descriptors (10 µM) 1 h [2]	Descriptors (10 µM) 24 h [2]	Descriptors (10 µM) 5 h [2]	Descriptors (10 µM) 48 h [2]
0.24	1.6	5.3	–	–	–	–	Cc1c(-c2cnc(N3CCCNCC3)nc2)ccc2c(Nc3cnccn3)ccnc12 [9e]	0	2	4	4	phenotypic response after 5 h	–	–	–	–
0.18	2.5	27	–	–	–	–	Cc1c(-c2cnc(N3CCCN(C)CC3)nc2)ccc2c(Nc3cnccn3)ccnc12 [9b]	0	0	0	0	no bioactivity	none	none	none	none
0.12	–	21	–	–	–	–	CCN1CCCN(c2ncc(-c3ccc4c(Nc5cnccn5)ccnc4c3C)cn2)CC1 [9c]	0	0	0	0	no bioactivity	none	none	none	none
0.06	3.3	36	–	–	–	–	CCCN1CCCN(c2ncc(-c3ccc4c(Nc5cnccn5)ccnc4c3C)cn2)CC1 [9d]	1	1	4	4	strongly bioactive by 24 h	–	Unc, deg	–	Unc, deg

From paper PMC7073886, “Structure–Bioactivity Relationships of Lapatinib Derived Analogs against Schistosoma mansoni” (ACS Medicinal Chemistry Letters, 2020)
